BigSolDB 2.1

N#CN=C(N)N
solubility (mole fraction)
Details | 283.15 K | 288.15 K | 293.15 K | 298.15 K | 303.15 K | 308.15 K | 313.15 K | 318.15 K | 323.15 K
in DMF | 0.239 | 0.248 | 0.258 | 0.259 | 0.262 | 0.265 | 0.274 | 0.276 | 0.284
in water | 0.00474 | 0.00594 | 0.00693 | 0.00897 | 0.0106 | 0.0134 | 0.0173 | 0.021 | 0.0244
